Assays:
SB47 CTL clone = experiment: Intracellular IFN-γ staining, SB47 CTL clone with LPEP-pulsed T2 cells; format: cell-based, human; settings: IFNγ intracellular staining, peptide-pulsed T2 cells, 4 h; performed twice
Method: Data were analyzed with FlowJo software (Tree Star).

CA5 CTL clone = settings: IFNγ intracellular staining, peptide-pulsed T2 cells, 4 h; performed twice
Method: CTL clones were tested against a range of antigen-presenting cells and assayed for intracellular expression of IFN-γ by flow cytometry using the BD Cytofix/Cytoperm kit (BD Biosciences) according to standard protocols. Briefly, clones were incubated with antigen-presenting cells at a stimulator to responder ratio of 1:2 for 4 h in the presence of brefeldin A (BioLegend). For peptide titration experiments, T2 cells were incubated with various concentrations of LPEP peptide for 1 h and then washed thoroughly prior to incubation with CTL clones. After stimulation, cells were stained with Live/Dead Fixable Aqua Dead Cell Stain (Invitrogen) and anti-CD8-Cy5.5-PerCP mAb (BioLegend) for 30 min at 4 °C. Cells were then washed, fixed, permeabilized, and labeled with anti-IFN-γ-antigen-presenting cell mAb (BioLegend) for 30 min at 4 °C. After a further wash, samples were collected using a FACSCanto II flow cytometer (BD Biosciences). Data were analyzed with FlowJo software (Tree Star). Lymphocytes were identified based on light scatter, then live CD8^+ T-cells were selected and IFN-γ^+ gates were drawn based on unstimulated controls.

LPEPLPQGQLTAY [LPEP peptide]
recognition of LPEP presented by HLA-B*35:08 versus HLA-B*35:01 by SB47 CTL clone (SB47 CTL clone): equally well
recognition of LPEP presented by HLA-B*35:08 versus HLA-B*35:01 by CA5 CTL clone (CA5 CTL clone): preferentially recognized HLA-B*35:08^LPEP when the peptide was limited

— publication PMC3668706, “Highly Divergent T-cell Receptor Binding Modes Underlie Specific Recognition of a Bulged Viral Peptide bound to a Human Leukocyte Antigen Class I Molecule” (The Journal of Biological Chemistry, 2013)
